Measured values reported in PubChem BioAssay (NCI).
Several values for one entry are separate records, joined by “and”; a condition that tells them apart may be missing. Identical values can stand only once.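 1) Cells in 96-well plates. 2) Compound, 48 h, 5 concentrations. 3) Linear interpolation between surrounding doses. 4) Unreached endpoint = highest concentration. The concentration for 50% growth inhibition is given as GI50. Definition used: TGI = concentration required for complete inhibition of growth.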

Columns and labels:
Test in all cases: growth of human tumour cells (NCI), 48 h
A498 renal = test system: A498 renal
A549 NSCLC = test system: A549 NSCLC
CAKI-1 renal = test system: CAKI-1 renal
DU-145 prostate = test system: DU-145 prostate
K-562 leukemia = test system: K-562 leukemia
KM12 colon = test system: KM12 colon
LOX IMVI melanoma = test system: LOX IMVI melanoma
NCI-H23 lung = test system: NCI-H23 lung
NCI/ADR-RES ovarian = test system: NCI/ADR-RES ovarian
PC-3 prostate = test system: PC-3 prostate

| SMILES | GI50 (A498 renal) | TGI (A498 renal) | GI50 (A549 NSCLC) | TGI (A549 NSCLC) | GI50 (CAKI-1 renal) | TGI (CAKI-1 renal) | GI50 (DU-145 prostate) | TGI (DU-145 prostate) | GI50 (K-562 leukemia) | TGI (K-562 leukemia) | GI50 (KM12 colon) | TGI (KM12 colon) | GI50 (LOX IMVI melanoma) | TGI (LOX IMVI melanoma) | GI50 (NCI-H23 lung) [µM] | TGI (NCI-H23 lung) | GI50 (NCI/ADR-RES ovarian) [µM] | TGI (NCI/ADR-RES ovarian) | GI50 (PC-3 prostate) [µM] | TGI (PC-3 prostate) |
| --- | --- | --- | --- | --- | --- | --- | --- | --- | --- | --- | --- | --- | --- | --- | --- | --- | --- | --- | --- | --- |
| CCN1C(=O)N(CC)C2C1NN=c1s/c(=C3\C(=O)Nc4ccccc43)c(=O)n12 (stereo not drawn) | 0.193 µM | 0.728 µM | 0.812 µM | > 100 µM | 0.404 µM | 34.8 µM | 0.492 µM | 33.6 µM | 0.343 µM | > 100 µM | 0.452 µM | > 100 µM | 0.625 µM | 29.2 µM | 0.752 | 24 µM | 5.67 | > 100 µM | 0.393 | > 100 µM |
| CCC/C=C/C=C/C(=O)OC1/C(=C/C(=O)OC)CC2CC(C(C)O)OC(=O)CC(O)CC3CC(OC(C)=O)C(C)(C)C(O)(CC4C/C(=C/C(=O)OC)CC(/C=C/C(C)(C)C1(O)O2)O4)O3 (stereo not drawn) | 7.67 µM and 9.27 µM | 10.9 µM and 11 µM and > 12.5 µM | 2.58 µM and 5.95 µM and > 12.5 µM | 8.17 µM and 11 µM and > 12.5 µM | 2.79 µM and 4.05 µM and > 12.5 µM | 10.9 µM and 11 µM and > 12.5 µM | > 11 µM | > 12.5 µM | 8.57 µM and 3.77 µM and > 12.5 µM | 10.9 µM and 11 µM and > 12.5 µM | > 10.9 µM and 6.75 µM and > 12.5 µM | > 10.9 µM and 9.07 µM and > 12.5 µM | > 10.9 µM and 8.02 µM and > 12.5 µM | > 10.9 µM and 11 µM and > 12.5 µM | > 12.5 | > 10.9 µM and 11 µM and > 12.5 µM | > 12.5 | > 12.5 µM | > 12.5 | 11 µM and > 12.5 µM |
| Cc1cc(NC(=O)NCCOc2ccc(N3C(N)=NC(N)=NC3(C)C)cc2Cl)ccc1S(=O)(=O)F | 10.2 µM | > 100 µM | 1.4 µM | > 68.3 µM | 55.4 µM | > 100 µM | 2.53 µM | > 100 µM | 0.599 µM | > 100 µM | 1.04 µM | > 44.3 µM | 0.74 µM | > 100 µM | 2.76 | > 100 µM | > 100 | > 100 µM | 0.143 | 22.3 µM |
| Cc1cccc(CNc2c3ccccc3nc3ccccc23)c1 | 1.32 µM | 2.7 µM | 1.88 µM | 4.86 µM | 1.61 µM | 5.03 µM | 3.28 µM | 11.7 µM | 2.23 µM | 12.5 µM | 3.16 µM | 12.1 µM | 1.49 µM | 2.9 µM | 1.63 | 4.22 µM | 1.85 | 5.97 µM | 1.99 | 7.11 µM |
| O=C1c2ccccc2C(=O)c2c1ccc1conc21 | – | 24.3 µM | – | 11.2 µM | – | 8.93 µM | – | 7.07 µM | – | 42.5 µM | – | 7.45 µM | – | 1.78 µM | – | 3.3 µM | – | 8.45 µM | – | 5.06 µM |
| CN(C)Cc1ccc(NC(=O)c2cncc(C#Cc3cnc(N)c4ncccc34)c2)cc1C(F)(F)F | 1.5 µM | 4.63 µM | 1.67 µM | 3.41 µM | 3.48 µM | 11.5 µM | 1.73 µM | 3.16 µM | – | 1.02 µM | 0.0759 µM | 1.4 µM | 0.994 µM | 2.24 µM | 1.25 | 2.68 µM | 1.8 | 3.67 µM | 1.64 | 3.04 µM |
| COc1ccc(C2=C(c3ccc(OC)cc3)C(=O)OC2)cc1 | 0.528 µM | 3.66 µM | 2.57 µM | > 100 µM | 0.489 µM | 14.8 µM | 2.38 µM | > 46.6 µM | 1.24 µM | 24.3 µM | 0.555 µM | > 37.7 µM | 0.964 µM | 15.1 µM | 3.46 | 30.8 µM | 2.89 | 28.4 µM | 5.19 | 44.1 µM |
| COc1ccc(-n2cc(-c3cc(OC)c(OC)c(OC)c3)nc2SCc2cccc(C#N)c2)cc1OC | > 100 µM | > 100 µM | 82.3 µM | > 100 µM | > 100 µM | > 100 µM | > 100 µM | > 100 µM | 56.9 µM | > 100 µM | > 100 µM | > 100 µM | > 100 µM | > 100 µM | > 100 | > 100 µM | > 100 | > 100 µM | 59.8 | > 100 µM |
| Nc1c(C(=O)c2cccc(-c3cccnc3)c2)cnn1-c1ccc(F)cc1 | > 25 µM | > 25 µM | > 25 µM | > 25 µM | > 25 µM | > 25 µM | > 25 µM | > 25 µM | > 25 µM | > 25 µM | > 25 µM | > 25 µM | > 25 µM | > 25 µM | > 25 | > 25 µM | > 20.5 | > 25 µM | > 25 | > 25 µM |
| O=S(=O)(F)Cc1ccccc1 | – | > 100 µM | – | > 100 µM | – | > 100 µM | – | > 100 µM | – | > 100 µM | – | > 100 µM | – | > 100 µM | – | > 100 µM | – | > 100 µM | – | > 100 µM |
| NC(CSC(c1ccccc1)(c1ccccc1)c1ccccc1)C(=O)O (stereo not drawn) | 0.493 µM | 51.9 µM and 43 µM | 4.86 µM and 2.75 µM | 82.1 µM and > 100 µM | 15.2 µM and 7.17 µM | 51.6 µM and > 100 µM | 6.02 µM and 4.1 µM | 85.5 µM and > 100 µM | 1.76 µM and 0.775 µM | 31.9 µM and > 100 µM | 5.15 µM and 2.35 µM | 96.3 µM and 24 µM | 6.26 µM and 4.14 µM | 24.3 µM and > 100 µM | – | 7.15 µM and 51.7 µM | 10.9 | 48.2 µM and > 100 µM | 2.43 | 12.1 µM and > 100 µM |
| CN(C)S(=O)(=O)c1cccc(C(=O)Nc2nc(-c3ccc(F)c(F)c3)cs2)c1 | 16.9 µM | > 100 µM | 13.2 µM | > 100 µM | 10.9 µM | > 75.9 µM | 25.9 µM | > 100 µM | 5.1 µM | > 100 µM | 24.2 µM | > 100 µM | 24 µM | > 100 µM | 10.3 | > 100 µM | 5.32 | > 100 µM | 5.96 | > 100 µM |
| O=C1/C(=C/c2ccc(F)cc2)COc2ccc(O)c(O)c21 | 12.5 µM | 28.3 µM | 3.32 µM | > 100 µM | 1.65 µM | 5.61 µM | 3.02 µM | 43.6 µM | 0.354 µM | > 100 µM | 1.99 µM | 6.82 µM | 1.03 µM | 2.39 µM | 2.65 | 13.7 µM | 1.96 | 7.85 µM | 1.16 | > 100 µM |
